“And” between values parts separate entries of the source, which are not always exact repeats. Equal values may be shown once. Read-outs that look alike come from different tables or passages of the source.
Assays:
[1] = Brain penetration in rats, brain to plasma ratios (Kp,brain, Kpuu,brain); type: in vivo, Sprague-Dawley rats; conditions: for concentration at 24 h / Kp uu at 24 h: intravenous
From the text: To understand the brain penetration, brain to plasma ratios of the compounds were obtained in Sprague-Dawley (SD) rats. In vivo equilibrium distribution between blood and brain in preclinical species such as rats is a commonly used parameter to evaluate brain penetration. Kp,brain is the ratio of concentrations in brain and blood (Cbrain/Cplasma) The compound's passive diffusion characteristics, its affinity for membrane transporters at the blood-brain barrier (BBB), and the relative drug binding affinity differences between the plasma proteins and brain tissue influence the Kp,brain.
The animals received IV infusion of 1 mg/kg/hr of the compound over 24 hours via jugular vein cannulation. At 24 hours, blood was collected via tail vein bleeding or cardiac puncture (under anesthesia) and centrifuged to obtain plasma samples. Brain tissues were collected and homogenized with phosphate-buffered saline (PBS). The concentrations of the compounds were obtained in the plasma and brain homogenates by LC-MS/MS analysis.

[2] = Rat plasma protein binding, equilibrium dialysis; type: in vitro ADME; conditions: 100% rat plasma, equilibrium dialysis 5 hours at 37° C.; for fraction unbound at 5 h, 10 μM: read-out: Fraction unbound fu,p, rat plasma
Description: Rat plasma protein binding of 4 and 63 were evaluated in vitro using an equilibrium dialysis method. […] Samples from the donor and receiver sides were analyzed by LC-MS/MS. Plasma protein bound and unbound fractions were calculated using the following equations—d Fraction bound (fb)*(%)=100×([Donor]5h−[Receiver]5h)/[Donor]5h (Equation 1) Fraction unbound (fu),p*(%)=100−% Bound* (Equation 2) where: [Donor]5h is measured donor concentration at 5-hour; [Received]5h is measured receiver concentration at 5-hour; fb* is bound fraction determined from plasma; fu,p* is calculated unbound fraction for plasma. Warfarin and quinidine were used as positive controls.

[3] = Rat brain protein binding in brain homogenate, equilibrium dialysis; type: in vitro ADME; conditions: equilibrium dialysis 5 hours at 37° C., read-out: fu,brain (brain homogenate)
Description: Similarly, rat brain protein binding of 4 and 63 were also evaluated in vitro using equilibrium dialysis method. 1 μM of the compound was assessed in brain homogenate in a dialysis block for 5 hours at 37° C. Samples from the donor and receiver sides were analyzed by LC-MS/MS. Brain protein bound and unbound fractions were calculated using the equations mentions above (Equations 1 and 2). Due to extensive protein binding, 4 was diluted further 4× for the brain homogenate measurement. The fu,brain of 4 and 63 were 0.29% and 0.1% respectively.

[4] = Rat brain protein binding in rat brain slices; type: in vitro ADME; conditions: rat brain slices (300 um thick); 300 um thick rat brain slices (striatum area); read-out: fu,brain (rat brain slices)
Description: Alternatively, rat brain protein binding of compounds 4 and 63 was evaluated in vitro by employing 300 um thick rat brain slices (striatum area) in an incubation tray. The fu,brain of compounds 4 and 63 by this method was 0.329% and 0.057% respectively. In that case, the Kp,uu, brain of 4 and 63 are 0.028 and 0.044 respectively.

[5] = Monkey brain to plasma ratio (Kp, Kpuu) after iv bolus and 2-hour iv infusion; type: in vivo
Description: A single IV bolus dose followed by a 2-hour iv infusion of the compound was administered to the monkey (3 monkeys/compound). Blood was collected from a femoral vein predose, right after the bolus administration and at the end of the infusion. The monkey was euthanized after the infusion and brain tissue was collected. Toxicokinetic evaluation of plasma (obtained by centrifugation of blood) and brain (homogenized in a buffer) was conducted to obtain brain to plasma ratio (Kp) of the compound. Kpuu was calculated by taking into consideration the fu,plasma and fu,brain as discussed above.

[6] = test system: UT-7 cells; test: UT-7 cell proliferation with SCF stimulation as a measure of wild-type KIT activity (CellTiter-Glo); type: cell-based, human; conditions: Homo sapiens, UT7, 72 h, SCF-stimulated UT-7 cell proliferation
From the text: UT-7 Cell Proliferation with SCF Stimulation Assay as a Measure of Wild-Type KIT Activity
UT-7 cells are human megakaryoblastic leukemia cell lines that can be grown in culture with dependence on granulocyte macrophage colony stimulating factor (GM-CSF) or stem cell factor (SCF). UT-7 cells respond to SCF stimulation by activation of the KIT receptor tyrosine kinase and subsequent downstream signaling that can support cell growth and proliferation (Kuriu et al, 1999; Komatsu et al, 1991; Sasaki et al, 1995). Test compounds were assayed for their ability to inhibit SCF-stimulated proliferation of UT-7 cells.
Inhibition of SCF-stimulated UT-7 cell proliferation was assessed using the CellTiter-Glo assay that quantifies the amount of adenosine triphosphate (ATP) present, which is a readout of metabolically active cells and is directly proportional to the number of viable cells in culture. The ability of test compounds to inhibit SCF-stimulated UT-7 cell proliferation was determined using a 10-point dose curve ranging from 25 μM to 95.4 pM of test compound.
UT-7 cells were maintained in IMDM supplemented with 10% FBS, 5 ng/mL GM-CSF and 100 units/mL Penicillin-Streptomycin and grown in a 37° C. humidified tissue culture incubator. UT-7 cells were washed once with serum free, GM-CSF free IMDM. Cells were then resuspended in IMDM containing 4% FBS and 50 ng/mL SCF and seeded at 2500 cells per well in a volume of 22 μL in a 384-well microplate. A 10-point dose concentration series of test compounds (25.0 μM to 95.4 pM) were then added to the cells in a volume of 3.1 μL to each well (0.25% DMSO final concentration) and placed in a tissue culture incubator (5% CO2, 37° C.) for 72 hours. After 3-days with test compound, CellTiter-Glo reagent was prepared fresh and 25 μL of reagent was added to each well. The plate was mixed by shaking for 10 minutes at RT at 300 rpm on a plate shaker. The plate was read on an EnVision plate reader using the Ultra Sensitive Luminescence protocol for a 384-well plate.

[7] = Sprague-Dawley, rat, brain, 1 mg/kg/hr, individual rats (Rat 1-3), IV infusion 1 mg/kg/hr over 24 hours, at 24 hours, read-out: Brain Concentration
[8] = Sprague-Dawley, rat, brain, 1 mg/kg/hr, mean of 3 rats, IV infusion 1 mg/kg/hr over 24 hours, at 24 hours, read-out: Brain Concentration (ng/mL), Mean
[9] = Sprague-Dawley, rat, brain, 1 mg/kg/hr, rat, from total mean brain concentration and fu,brain (homogenate), read-out: Unbound concentration, Brain
[10] = Sprague-Dawley, rat, plasma, 1 mg/kg/hr, individual rats (Rat 1-3), IV infusion 1 mg/kg/hr over 24 hours, at 24 hours, read-out: Plasma Concentration
[11] = Sprague-Dawley, rat, plasma, 1 mg/kg/hr, mean of 3 rats, IV infusion 1 mg/kg/hr over 24 hours, at 24 hours, read-out: Plasma Concentration (ng/mL), Mean
[12] = Sprague-Dawley, rat, plasma, 1 mg/kg/hr, rat, from total mean plasma concentration and fu,p, read-out: Unbound concentration, Plasma
[13] = individual rats (Rat 1-3), IV infusion 1 mg/kg/hr over 24 hours, at 24 hours
[14] = mean of 3 rats, IV infusion 1 mg/kg/hr over 24 hours, at 24 hours
[15] = rat, unbound brain to plasma ratio, fu,brain from brain homogenate

Compound | concentration at 24 h [1, 7] [ng/mL] | concentration at 24 h [1, 8] [ng/mL] | concentration at 24 h [1, 9] [ng/mL] | concentration at 24 h [1, 10] [ng/mL] | concentration at 24 h [1, 11] [ng/mL] | concentration at 24 h [1, 12] [ng/mL] | Brain Concentration [1, 13] | Kp, brain [1, 13] | Plasma Concentration [1, 13] | Kp, brain, Mean [1, 14] | Kpuu,brain [1, 15] | Fraction bound (fb), rat plasma [2] [%] | fraction unbound at 5 h, 10 μM [2] | fraction unbound at 5 h, 1 μM [3] | fraction unbound [4] | IC50 [6] [nM] | also measured
C[C@](N)(c1ccc(F)cc1)c1cnc(N2CCN(c3ncnn4cc(-c5cnn(CCO)c5)cc34)CC2)nc1 [Compound 4, (S)-2-(4-(4-(4-(5-(1-amino-1-(4-fluorophenyl)ethyl)pyrimidin-2-yl)piperazin-1-yl)pyrrolo[2,1-f][1,2,4]triazin-6-yl)-1H-pyrazol-1-yl)ethanol] | 152 | 183 | 0.53 | 859 | 1050 | 21.9 | 188 ng/mL and 208 ng/mL | 0.177 and 0.168 and 0.174 | 1120 ng/mL and 1180 ng/mL | 0.17 and 0.174 | 0.024 | 97.92 | 0.0208 | 0.0029 | 0.00329 | < 90 | Kp,uu, brain (brain slice method) ([1]; rat, fu,brain from brain slices): 0.028; Kp (Brain:Plasma) ([5]; IV bolus followed by 2-hour iv infusion): 0.09; Kpuu ([5]; calculated with fu,plasma and fu,brain): 0.01
CCn1cc(-c2cc3c(N4CCN(c5ncc([C@@](C)(N)c6ccc(F)cc6)cn5)CC4)ncnn3c2)cn1 [Compound 63, reference compound] | 1920 | 1700 | 1.7 | 1140 | 1010 | 2.02 | 1890 ng/mL and 1300 ng/mL | 1.68 and 2.40 and 1.18 | 789 ng/mL and 1100 ng/mL | 1.75 | 0.84 | 99.8 | 0.002 | 0.001 | 0.00057 | 150 to 200 | Kp uu at 24 h ([1]; Sprague-Dawley, rat, brain, 1 mg/kg/hr, rat, fu,brain from brain slices, read-out: Kp,uu, brain (brain slice method)): 0.044; Kp uu at 24 h ([1]; Sprague-Dawley, rat, brain, 1 mg/kg/hr, rat, unbound brain to plasma ratio, fu,brain from brain homogenate, read-out: Kpuu,brain): 0.84; Kp at 24 h ([1]; Sprague-Dawley, rat, brain, iv, 1 mg/kg/hr, mean of 3 rats, IV infusion 1 mg/kg/hr over 24 hours, at 24 hours, read-out: Kp, brain, Mean): 1.8; Kp at 2 h ([5]; brain, IV bolus followed by 2-hour iv infusion): 1.86; Kp uu at 2 h ([5]; intravenous, calculated with fu,plasma and fu,brain): 0.92

— US10829493B2, “Compositions and methods for treating KIT- and PDGFRA-mediated diseases” (Blueprint Medicines Corporation, priority 2019, dated 2020)
